Reference: ChEMBL document CHEMBL1155710, “New bioactive sulfated metabolites from the Mediterranean tunicate Sidnyum turbinatum” (J Nat Prod, 2001)

test system: WEHI-164; assay: Antiproliferative activity against mouse WEHI164 cells assessed as cell viability after 96 hrs by MTT assay; assay type: functional, cell-based; conditions: WEHI-164, 96 h

| SMILES | IC50 [µg/mL] |
| --- | --- |
| CC(C)CCCC(CCCC(C)CCC[C@H](C)COS(=O)(=O)[O-])COS(=O)(=O)[O-].[Na+].[Na+] (stereo not given in full) | 230 |
| CC(C)CCCC(CCCC(C)CCCC(C)CCOS(=O)(=O)[O-])COS(=O)(=O)[O-].[Na+].[Na+] (stereo not given) | 300 |
| CCCCCCCCCCCCCCCCCOS(=O)(=O)[O-].[Na+] [SODIUM HEPTADECYL SULFATE] | 400 |
| CCCCCCOS(=O)(=O)[O-].[Na+] [SODIUM HEXYL SULFATE] | 150 |
| CCCCCCCCCCCCCCCCCCOS(=O)(=O)[O-].[Na+] [SODIUM OCTADECYL SULFATE] | 410 |
